Common to all, as to test: Antimicrobial activity assay, broth microdilution MIC
What all share (format): cell-based
For orientation: Broth dilution looks for growth in wells or tubes with falling amounts of substance.

Experiment [1] deals with Staphylococcus aureus WCUH29. Particulars: others: individual runs; for MIC: Staphylococcus aureus, WCUH29, Examples 24 and 63: median of all results obtained, read-out: MIC, S. aureus WCUH29. On the procedure:
(§1) Whole-cell antimicrobial activity was determined by broth microdilution using the Clinical and Laboratory Standards Institute (CLSI, formerly NCCLS) recommended methodology (NCCLS Document M7-A6, “Methods for Dilution Susceptibility Tests for Bacteria that Grow Aerobically—Approved Standard Sixth Edition”, 2003). Compounds were tested in serial two-fold dilutions ranging from 64 to 0.06 μg/mL. A panel of 12 strains was evaluated in the assay. This panel consisted of the following laboratory strains: Staphylococcus aureus Oxford, Staphylococcus aureus WCUH29, Enterococcus faecalis 1, Enterococcus faecalis 7, Haemophilus influenzae Q1, Haemophilus influenzae NEMC1, Moraxella catarrhalis 1502, Streptococcus pneumoniae 1629, Streptococcus pneumoniae N1387, Streptococcus pneumoniae Ery2, Escherichia coli 7623 (AcrABEFD+) and Escherichia coli 120 (AcrAB−). The minimum inhibitory concentration (MIC) was determined as the lowest concentration of compound that inhibited visible growth. A mirror reader was used to assist in determining the MIC endpoint.

The test system of experiment [2] is Streptococcus pneumoniae 1629. Particulars: Examples 24 and 63: median of all results obtained, others: individual runs, read-out: MIC, S. pneumoniae 1629. On the procedure:
as §1

The test system of experiment [3] is Enterococcus faecalis 7. The following applies: others: individual runs; for MIC, E. faecalis 7: Examples 24 and 63: median of all results obtained; for MIC: Enterococcus faecalis, 7, Examples 24 and 63: median of all results obtained, read-out: MIC, E. faecalis 7. The protocol: as §1
For experiment [4], the system named is Moraxella catarrhalis 1502. The following applies: others: individual runs; for MIC: Moraxella catarrhalis, 1502, Examples 24 and 63: median of all results obtained. The protocol: as §1
Experiment [5] relates to Streptococcus pneumoniae N1387. Particulars: Examples 24 and 63: median of all results obtained, others: individual runs, read-out: MIC, S. pneumoniae N1387. The protocol: as §1
Experiment [6] relates to Enterococcus faecalis 1. Particulars: others: individual runs; for MIC: Enterococcus faecalis, 1, Examples 24 and 63: median of all results obtained, read-out: MIC, E. faecalis I; for MIC, E. faecalis I: Examples 24 and 63: median of all results obtained. On the procedure:
as §1

Experiment [7] relates to Streptococcus pneumoniae Ery2. The following applies: Examples 24 and 63: median of all results obtained, others: individual runs, read-out: MIC, S. pneumoniae ERY2. The protocol: as §1
In experiment [8] the test system is Staphylococcus aureus Oxford. The following applies: Examples 24 and 63: median of all results obtained, others: individual runs; for MIC: Staphylococcus aureus, read-out: MIC, S. aureus Oxford. On the procedure:
as §1

Experiment [9] deals with Escherichia coli 7623 (AcrABEFD+). Particulars: Examples 24 and 63: median of all results obtained; others: individual runs. The protocol:
as §1

The mark [10] stands for this setting: Examples 24 and 63: median of all results obtained.

Values after ≈ are worked out from the molar mass of the structure shown. Values joined by “and” are separate entries in the source; they are usually repeats but may differ in a detail not shown here. Equal entries are not always repeated.

Take `Cc1nc(NNC(=O)[C@H](CC2CCCC2)CN(O)C=O)c(F)c(N2CCN(C)C3(CC3)C2)n1` [Example 275, ((2R)-2-(Cyclopentylmethyl)-3-{2-[5-fluoro-2-methyl-6-(4-methyl-4,7-diazaspiro[2.5]oct-7-yl)-4-pyrimidinyl]hydrazino}-3-oxopropyl)hydroxyformamide]: the “MIC, S. aureus WCUH29” value in experiment [1] (setting [10]) worked out at 1 µg/mL (≈ 2.16 µM). Also, the MIC (as a rule, the least concentration at which growth counts as inhibited) was determined as 0.5 µg/mL (≈ 1.08 µM) in experiment [1]; 1 µg/mL (≈ 2.16 µM) in experiment [2]; 0.25 µg/mL (≈ 0.539 µM) in [4]; 0.5 µg/mL (≈ 1.08 µM) in [5]; 32 µg/mL (≈ 69 µM) in [6]; 0.5 µg/mL (≈ 1.08 µM) in experiment [7]. In addition, the MIC in experiment [8] was found to be 2 µg/mL (≈ 4.31 µM). For the same compound, the “MIC, E. faecalis 7” value in experiment [3] is 16 µg/mL and 64 µg/mL. In addition, in [6], the “MIC, E. faecalis I” value was 64 µg/mL (≈ 138 µM). The “MIC, S. aureus Oxford” value in experiment [8] is 4 µg/mL (≈ 8.63 µM). In addition, the “MIC, E. coli 7623 AcrABEFD+” value in [9] is 4 µg/mL and 16 µg/mL.

On to `Cc1nc(NNC(=O)[C@H](CC2CCCC2)CN(O)C=O)c(F)c(N2CCN(C)C[C@H]2C)n1` [Example 109, [(2R)-2-(Cyclopentylmethyl)-3-(2-{6-[(2R)-2,4-dimethyl-1-piperazinyl]-5-fluoro-2-methyl-4-pyrimidinyl}hydrazino)-3-oxopropyl]hydroxyformamide], for which the MIC is 0.5 µg/mL (≈ 1.11 µM) in [1]; 0.5 µg/mL (≈ 1.11 µM) in experiment [2]; more than 64 µg/mL in [3]; 0.25 µg/mL (≈ 0.554 µM) in [4]; 0.25 µg/mL (≈ 0.554 µM) in experiment [5]; 64 µg/mL (≈ 142 µM) in [6]. Further, the figures for the MIC in experiment [7] and in experiment [8] were 0.25 µg/mL (≈ 0.554 µM) and 2 µg/mL (≈ 4.43 µM), respectively. In experiment [6], the “MIC, E. faecalis I” value is 64, >64 μg/ml.

Take `CN1CCN(c2nc(Cl)nc(NNC(=O)[C@H](CC3CCCC3)CN(O)C=O)c2F)CC12CC2` [Example 172, [(2R)-3-{2-[2-Chloro-5-fluoro-6-(4-methyl-4,7-diazaspiro[2.5]oct-7-yl)-4-pyrimidinyl]hydrazino}-2-(cyclopentylmethyl)-3-oxopropyl]hydroxyformamide]: the MIC was 0.5 µg/mL (≈ 1.03 µM) in experiment [1]; 0.5 µg/mL (≈ 1.03 µM) in experiment [2]; 0.125 µg/mL (≈ 0.258 µM) in experiment [5]; 16 µg/mL (≈ 33.1 µM) in experiment [6]; 0.125 to 0.25 µg/mL (≈ 0.258 to 0.517 µM) in experiment [7]; 1 µg/mL (≈ 2.07 µM) in [8]. For the same compound, the “MIC, E. faecalis 7” value in [3] is 8 µg/mL and 64 µg/mL. Further, the “MIC, M. catarrhalis 1502” value in [4] (setting [10]) was ≤ 0.06 µg/mL and 0.125 µg/mL. The “MIC, S. aureus Oxford” value in [8] was found to be 2 µg/mL (≈ 4.13 µM). In addition, the “MIC, E. coli 7623 AcrABEFD+” value in [9] is 4 µg/mL and 16 µg/mL.

In the case of `C[C@@H]1CN(C)CCN1c1nc(Cl)nc(NNC(=O)[C@H](CC2CCCC2)CN(O)C=O)c1F` [Example 63, [(2R)-3-(2-{2-Chloro-6-[(2R)-2,4-dimethyl-1-piperazinyl]-5-fluoro-4-pyrimidinyl}hydrazino)-2-(cyclopentylmethyl)-3-oxopropyl]hydroxyformamide], the MIC in [1] came out at 0.5 µg/mL (≈ 1.06 µM); in experiment [2], 0.5 µg/mL (≈ 1.06 µM); in [3] it was 64 µg/mL (≈ 136 µM); in experiment [4], 0.125 µg/mL (≈ 0.265 µM); in [5], 0.25 µg/mL (≈ 0.53 µM); in [6] it was 16 µg/mL (≈ 33.9 µM). The MIC in experiment [7] was determined as 0.25 µg/mL (≈ 0.53 µM); in experiment [8], 1 µg/mL (≈ 2.12 µM).

As for `Cc1nc(NNC(=O)[C@H](CC2CCCC2)CN(O)C=O)c(F)c(N2CCN3CCOC[C@@H]3C2)n1` [Example 24, [(2R)-2-(Cyclopentylmethyl)-3-(2-{5-fluoro-6-[(9aS)-hexahydropyrazino[2,1-c][1,4]oxazin-8(1H)-yl]-2-methyl-4-pyrimidinyl}hydrazino)-3-oxopropyl]hydroxyformamide], the MIC in experiment [1], in experiment [4] and in experiment [7] was 0.375 µg/mL (≈ 0.782 µM) throughout.

The values are drawn from patent US7893056B2, “Peptide deformylase inhibitors” (GlaxoSmithKline LLC, priority 2007, dated 2011).
